# Laboratory results reported in patent US7928119B2, “Use of EP4 receptor ligands in the treatment of IL-6 involved diseases” (Pfizer Inc., priority 2002, dated 2011).
# pIC50: −log10 of the molar value. Values joined by “and” are separate entries in the source; they are usually repeats but may differ in a detail not shown here. Identical values can stand only once.
# Tests used:
# human whole blood (HWB) [1] = experiment: Effects of EP agonists on the production of IL-6 in HWB; type: cell-based; settings: agonist 1-10 μM (up to 10 μM), 24 hrs
# Procedure: Peripheral human whole blood (HWB) was collected from healthy volunteers into the sample tubes (nine volumes into one volume of 3.8% trisodium citrate, Becton Dickinson), and chilled at 4° C. until the experiment. HWB (50 μl) was put into the assay plate and mixed for 10 sec with plate mixer (intensity level at 4, TAITAC, Micromixer). The samples were placed for 3 min at room temperature, then 45 μl of AIM medium was added and mixed for 10 sec with plate mixer (intensity level at 4). The samples were placed for 3 min at room temperature. The mixture (100 μl) of 10-10000 nM each EP agonist and 100 μM argatroban were added to the samples, and mixed for 10 sec with plate mixer (intensity level at 4). The samples were incubated in 5% CO2 at 37° C. for 24 hrs. Then, the samples were stirred and centrifuged at 200 g for 10 minutes. The supernatants were collected, and the IL-6 concentration was measured by ELISA-Kit (Cyto screen).
# The application of 1-10 μM Butaprost, an EP2 agonist, enhanced IL-6 production (FIG. 5). […] Effects of EP2 (butaprost), EP4 (11-deoxy-PGE1) and EP1/EP3 (sulprostone) agonists on the production of IL-6 in HWB was measured respectively. Each agonist was added to the HWB, and incubated in 5% CO2 at 37° C. for 24 hrs. The results represented the mean±s.d. of the results in triplicate. […]
# PGE2-stimulated HWB = experiment: Effects of EP4 antagonist on the production of IL-6 in PGE2-stimulated HWB; type: cell-based, human; settings: Compound B 320-40,000 nM, 24 hrs
# Procedure: Peripheral human whole blood (HWB) was collected from healthy volunteers into the sampling tubes (nine volumes into one volume of 3.8% trisodium citrate, Becton Dickinson), and chilled at 4° C. until the experiment.
# Compound B (5 μl) or vehicle (AIM medium containing 0.2% DMSO) was added into 96-well culture plates. HWB (50 μl) was put into the assay plate and mixed for 10 sec with plate mixer (intensity level at 4, TAITAC, Micromixer). The samples were placed for 3 min at room temperature, and then 45 μl of AIM medium was added and mixed for 10 sec with plate mixer (intensity level at 4). The samples were placed for 3 min at room temperature. The mixture (100 μl) of 100 nM PGE2 and 100 μM argatroban was added to the samples, and mixed for 10 sec with plate mixer (intensity level at 4). The samples were incubated in 5% CO2 at 37° C. for 24 hrs. Then, the samples were stirred and centrifuged at 200 g for 10 minutes. The supernatants were collected, and the IL-6 concentration was measured by ELISA-Kit (Cyto screen).
# Compound B inhibited the PGE2-stimulated IL-6 production in a dose dependent manner (FIG. 6). Diluted human whole blood samples containing Compound B were stimulated with 10-10,000 nM of PGE2 and incubated at 37° C. for 24 hrs. The IL-6 concentration in the supernatant was determined by ELISA. […]
# human PBMC = experiment: PGE2 stimulation of IL-6 secretion in ConA-treated human PBMC and its inhibition by EP4 antagonists (ELISA); type: cell-based
# Procedure: PBMC were stimulated with 5 μg/ml of Con A alone or with 10 nM to 1000 nM PGE2 at 37° C. for 24 hr. The secreted IL-6 in culture medium was measured by ELISA. Data are expressed as mean±s.d. (FIG. 1)
# The PGE2 concentration-dependence of stimulation of IL-6 secretion by human PBMC without and with ConA-stimulation, and the inhibitory effect of Compound A. PBMC were stimulated with 5 μg/ml of Concanavalin A alone or with 10 nM to 1000 nM PGE2 at 37° C. in 5% CO2 for 24 hr. To see the effect of Compound A, 50 μM of Compound A was added simultaneously with ConA and PGE2, and incubated for 24 hr. Data in parenthesis are expressed % control of mitocondorial dehydrogenase activity. (FIG. 2)
# Compound A and Compound B inhibited the IL-6 secretion in ConA-treated PBMC. (FIG. 3.) PBMC were incubated with 5 μg/ml of Con A, 100 nM PGE2 and various doses of EP4 antagonists at 37° C. for 24 hr. The secreted IL-6 in culture medium was measured by ELISA. Data are expressed as mean±s.d.
# [2] = system: ConA and PGE2 co-stimulated human whole blood; experiment: IL-6 production in ConA and PGE2 co-stimulated human whole blood; type: cell-based
# Procedure: Compound B (50 μl), ConA and PGE2 (50 μl, 1:1) were diluted with the AIM medium (Gibco) in the appropriate concentrations (conc.) and were placed onto 96-well culture plates (assay plates). Peripheral blood was collected from healthy volunteers (nine volumes into one volume of 3.8% trisodium citrate, Becton Dickinson). Human whole-blood samples were diluted with the same volume of AIM medium, and 100 μl of diluted-blood samples were place onto the assay plates. The final DMSO conc. of assay mixtures was 0.25%. The assay mixtures were incubated in 5% CO2 at 37° C. for 24 hrs. Then, the assay mixtures were stirred and centrifuged at 200 g for 10 minutes. The supernatants were collected, and the IL-6 concentration was measured by ELISA-Kit (Cyto screen).
# PGE2 enhanced IL-6 production dose dependently from 10 to 1000 nM (FIG. 7). When blood samples were stimulated with 10, 100 and 1000 nM of PGE2, the IL-6 concentrations in the assay mixtures were 1.8˜10.8 ng/ml, 4˜20 ng/ml and 5.8˜23 ng/ml, respectively. The concentrations of PGE2 (10-1000 nM) gave sufficient IL-6 production to determine the IC50s of the EP4 antagonists. […] Diluted human whole-blood samples were stimulated with 5 μg/ml of ConA and three different concentrations of PGE2 (10-1000 nM). The IL-6 concentration in the supernatant was determined after 24 hrs of incubation at 37° C. Diluted human whole blood was co-stimulated with 5 μg/ml of ConA and 100 nM of PGE2 and incubated at 37° C. for 24 hrs. The IL-6 concentration in the supernatant was determined by ELISA.
# human whole blood cells = experiment: IL-6 production in human whole blood cells; type: cell-based; settings: application of only PGE2 to human whole blood cells
# Text: One embodiment of this invention is a more specific therapeutic targeting system to control IL-6 production. In addition, this system is a useful method for the detection of molecular target of atherosclerosis and IL-6 related disorders.
# [3] = system: human leukemic T cells of the HSB.2 cultured line; settings: HSB.2 cells coexpressing EP2, EP3 and EP4; cited from earlier work
# fibrin formation = experiment: Fibrin formation in HWB culture samples during 24 hrs incubation; set-up: species or system human; settings: 100 μM
# Procedure: In this experiment, we have established PGE2-induced IL-6 production assay using human whole blood (HWB). To prevent fibrin synthesis, argatroban, a thrombin inhibitor, was added to the culture samples. […] Diluted human whole blood samples were stimulated with 10-10,000 nM of PGE2 and incubated at 37° C. for 24 hrs. The IL-6 concentration in the supernatant was determined by ELISA. The results represented the mean±s.d. from one representative experiment performed in triplicate.
# human whole blood (HWB) [4] = experiment: PGE2-induced IL-6 production assay using human whole blood (HWB); type: cell-based; settings: 100 μM, 24 hrs incubation
# Procedure: Peripheral human whole blood (HWB) was collected from healthy volunteers into the sample tubes (nine volumes into one volume of 3.8% trisodium citrate, Becton Dickinson), and chilled at 4° C. until the experiment. HWB (50 μl) was put into the assay plate and mixed for 10 sec with plate mixer (intensity level at 4, TAITAC, Micromixer). The samples were placed for 3 min at room temperature, then 45 μl of AIM medium was added and mixed for 10 sec with plate mixer (intensity level at 4). The samples were placed for 3 min at room temperature. The mixture (100 μl) of 10-10000 nM PGE2 and 100 μM argatroban were added to the samples, and mixed for 10 seconds with plate mixer (intensity level at 4). The samples were incubated in 5% CO2 at 37° C. for 24 hrs. Then, the samples were stirred and centrifuged at 200 g for 10 minutes. The supernatants were collected, and the IL-6 concentration was measured by ELISA-Kit (Cyto screen).
# In this experiment, we have established PGE2-induced IL-6 production assay using human whole blood (HWB). To prevent fibrin synthesis, argatroban, a thrombin inhibitor, was added to the culture samples. […] Diluted human whole blood samples were stimulated with 10-10,000 nM of PGE2 and incubated at 37° C. for 24 hrs. The IL-6 concentration in the supernatant was determined by ELISA. […]
smiles,measurement,setting,value
CCCCC[C@H](O)/C=C/[C@H]1CCC(=O)[C@@H]1CCCCCCC(=O)O [11-deoxy-PGE1],IL-6 production,human whole blood (HWB) [1],enhanced
CCCC1([C@H](O)C/C=C/[C@H]2[C@H](O)CC(=O)[C@@H]2CCCCCCC(=O)OC)CCC1 [Butaprost],IL-6 production,human whole blood (HWB) [1],enhanced
"O=C(O)c1cccc(C[C@@H]2CCCC=C2c2nc(-c3ccccc3)c(-c3ccccc3)o2)c1 [Compound B, 3-{[(1S)-2-(4,5-diphenyl-1,3-oxazol-2-yl)-2-cyclohexen-1-yl]methyl}benzoic acid]",PGE2-stimulated IL-6 production,PGE2-stimulated HWB,inhibited
same,pIC50,"human PBMC; Homo sapiens, PBMC stimulated with 5 μg/ml ConA and 100 nM PGE2 for 24 hr, read-out: IC50 of inhibition of IL-6 production",7.49
"CCc1nc2cc(C(C)=O)ccc2n1-c1ccc(CCNC(=O)NS(=O)(=O)c2ccc(C)cc2)cc1 [Compound C, N-[({2-[4-(5-acetyl-2-ethyl-1H-benzimidazol-1-yl)phenyl]ethyl}amino)carbonyl]-4-methylbenzenesulfonamide]",mode of inhibition of IL-6 production,[2]; ConA and PGE2 co-stimulated HWB,competitively with PGE2
same,inhibition of IL-6 production,"[2]; ConA and PGE2 co-stimulated HWB, Compound C 16-50,000 nM",dose-dependent inhibition
"CCCCC[C@H](O)/C=C/[C@H]1[C@H](O)CC(=O)[C@@H]1C/C=C\CCCC(=O)O [PGE2, Prostaglandin E2]",IL-6 production,"[2]; ConA-stimulated HWB, PGE2 10 to 1000 nM",enhanced
same,IL-6 production,human whole blood cells,enhanced IL-6 production to a great extent
same,IL-6 production,[3],enhanced
same,secretion of IL-6,"human PBMC; ConA unstimulated PBMC, 10-1000 nM PGE2",did not affect
same,"IL-6 secretion further enhanced, compared with ConA stimulation without PGE2","human PBMC; PBMC, 5 μg/ml ConA, 24 hr, […] PGE2 (so in the source)",3.5 fold and 5.7 fold and 10.1 fold
CC1CNc2c(cccc2S(=O)(=O)N[C@@H](CCCNC(=N)N)C(=O)N2CC[C@@H](C)C[C@@H]2C(=O)O)C1 (some centres unmarked) [argatroban],fibrin formation in the blood samples,fibrin formation,inhibited
same,amount of IL-6 production,human whole blood (HWB) [4],did not affect
CCCC(=O)Nc1ncnc2c1ncn2[C@@H]1O[C@@H]2COP(=O)(O)O[C@H]2[C@H]1OC(=O)CCC [dibutyryl-cAMP],IL-6 production,[3],mimicked
